In patent publication US20240368109A1, “ALLOSTERIC MODULATORS OF NICOTINIC ACETYLCHOLINE RECEPTORS” (MERCK SHARP & DOHME LLC, priority 2021, published 2024):

Molecular target: human α7 nAChR (Homo sapiens (Human), UniProt P36544)
Assay: Automated patch-clamp electrophysiology functional assay (Assay A)
Format: cell-based
Conditions: IonFlux HT whole-cell population patch, HEK cells expressing human α7/RIC-3, 40 μM acetylcholine
Experimental: The α7 nAChR positive allosteric modulator (PAM) activity of the present compounds may be tested using assays known in the art. The α7 nAChR PAMs described herein have activities in an automated patch-clamp electrophysiology functional assay as described in the examples. The assay was performed using the IonFlux HT in a whole-cell, population patch configuration. See Golden et al. Assay Drug Dev. Technol. (2011) 9:608-619. The compounds were assessed for their ability to modulate the function of the human α7 nAChR stably expressed in a HEK cell line both in the presence, and in the absence of the natural α7 agonist acetylcholine. By performing a series of such measurements at different concentrations, the effective concentration of the α7 nAChR PAMs (EC50) was determined. See Spencer et al. Assay Drug Dev. Technol. (2012) 10:313-324.
Direct activation of α7 (agonism), and potentiation of acetylcholine-evoked α7 currents was determined as follows:
Automated Patch-Clamp Electrophysiology Functional Assay (Assay A)
Automated patch-clamp electrophysiology was performed using the IonFluxHT (Fluxion Biosciences Inc., San Francisco, CA) in the whole-cell, population patch configuration. Test compounds were assessed for their ability to modulate the function of the α7 nicotinic acetylcholine receptor both in the presence, and in the absence of the natural α7 agonist acetylcholine. A HEK cell line stably expressing both human RIC-3 and human α7 (PrecisION hnAChR α7/RIC-3, Eurofins Pharma, St. Charles, MO) was cultured in 175 cm^2 triple-layer tissue culture flasks to no more than 90% confluency in DMEM/F-12 growth media supplemented with 10% heat-inactivated fetal bovine serum, 1% non-essential amino acids, 0.625 μg/mL Puromycin, and 400 μg/mL Geneticin. Immediately prior to assay, cells were detached by first aspirating growth media, rinsing with Dulbecco's phosphate buffered saline, and then adding 10 mL of Accutase (Innovative Cell Technologies, San Diego, CA) to the flask and then incubating at 37° C. for 5 minutes. Detached cells were then recovered by the addition of 40 mL of CHO-serum-free media supplemented with 25 mM HEPES, and rocked gently in a 50 mL conical tube for 20 minutes prior to patch-clamp assay. After recovery, cells were pelleted by centrifugation at 1,000 RPM for 1 minute in a compact bench top centrifuge; recovery media was aspirated and cells were resuspended in external recording solution (150 mM NaCl, 5 mM KCl, 2 mM CaCl2), 1 mM MgCl2, 10 mM HEPES, 12 mM dextrose) to a density of 5.0×10^6 cells/mL. The cell suspension was added to the cell inlet wells on an IonFlux HT population patch plate which had previously been rinsed and primed with deionized H2O. Test compounds were serially diluted in DMSO and then resuspended to the final test concentration in external recording solution, with, or without 40 μM acetylcholine added to the external recording solution; test compounds were then transferred to the IonFlux HT population patch plate. Internal recording solution (110 mM TrisPO4, 28 mM TrisBase, 0.1 mM CaCl2), 2 mM MgCl2, 11 mM EGTA, 4 mM MgATP) was added to the internal recording solution inlet wells on the IonFlux HT patch plate previously loaded with cells and test compounds, and the plate loaded into the IonFlux HT instrument. A protocol was executed on the IonFlux HT to trap the cells, break into the cells, and establish the whole-cell recording configuration; cells were voltage-clamped at a holding potential of −60 mV for the duration of the experiment, all experiments were conducted at room temperature, and the IonFlux HT injection pressure was 8 psi for solution applications. Upon establishing the whole-cell configuration, external recording solution was perfused into the recording chambers for 120 seconds and then 40 μM acetylcholine was applied for 1 second and immediately washed off with external recording solution for 60 seconds. […]

Sequence of human α7 nAChR (P36544 23-502): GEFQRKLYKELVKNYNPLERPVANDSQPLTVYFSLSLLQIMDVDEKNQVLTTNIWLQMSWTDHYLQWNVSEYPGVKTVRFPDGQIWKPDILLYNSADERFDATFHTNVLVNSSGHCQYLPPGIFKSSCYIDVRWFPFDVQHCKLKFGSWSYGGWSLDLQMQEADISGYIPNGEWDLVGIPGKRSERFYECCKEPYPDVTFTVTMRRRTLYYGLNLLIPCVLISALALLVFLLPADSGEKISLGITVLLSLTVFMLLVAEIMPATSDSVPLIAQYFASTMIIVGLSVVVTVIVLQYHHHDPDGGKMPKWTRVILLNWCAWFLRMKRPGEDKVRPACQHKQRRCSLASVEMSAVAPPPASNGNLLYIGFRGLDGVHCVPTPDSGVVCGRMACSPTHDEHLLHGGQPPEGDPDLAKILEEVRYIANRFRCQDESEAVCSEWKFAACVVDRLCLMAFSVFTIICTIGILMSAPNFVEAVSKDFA

| Structure (SMILES) | EC50 (electrophysiology EC50 values) | EC50 (potency class) |
| --- | --- | --- |
| CCOc1ccc([C@@H](NC(=O)C2C3COc4ccc(F)cc4C32)C(F)(F)F)cn1 (stereo partly drawn) [Example A13, exo-N-[(1R)-1-(6-ethoxypyridin-3-yl)-2,2,2-trifluoroethyl]-6-fluoro-1,1a,2,7b-tetrahydrocyclopropa[c][1]benzopyran-1-carboxamide] | 1100 nM | 500 to 5000 nM |
| CCOc1ccc([C@@H](NC(=O)C2C3COc4ccc(F)cc4C32)C(F)F)cn1 (stereo partly drawn) [Example A14, exo-N-[(1R)-1-(6-ethoxypyridin-3-yl)-2,2-difluoroethyl]-6-fluoro-1,1a,2,7b-tetrahydrocyclopropa[c][1]benzopyran-1-carboxamide] | 1100 nM | 500 to 5000 nM |
| CCOc1ccc([C@H](CF)NC(=O)C2C3COc4ccc(F)cc4C32)cn1 (stereo partly drawn) [Example A15, exo-N-[(1R)-1-(6-ethoxypyridin-3-yl)-2-fluoroethyl]-6-fluoro-1,1a,2,7b-tetrahydrocyclopropa[c][1]benzopyran-1-carboxamide] | 1500 nM | 500 to 5000 nM |
| COc1cc([C@H](CF)NC(=O)C2C3COc4ccc(F)cc4C32)ccn1 (stereo partly drawn) [Example A16, exo-6-fluoro-N-[(1R)-2-fluoro-1-(2-methoxypyridin-4-yl)ethyl]-1,1a,2,7b-tetrahydrocyclopropa[c][1]benzopyran-1-carboxamide] | – | 500 to 5000 nM |
| COc1cccc(OC)c1CNC(=O)C1C2COc3ccccc3C21 (stereo not drawn) [Example A17, exo-N-[(2,6-dimethoxyphenyl)methyl]-1,1a,2,7b-tetrahydrocyclopropa[c][1]benzopyran-1-carboxamide] | 1100 nM | 500 to 5000 nM |
| CC(C)(NC(=O)C1C2COc3ccc(F)cc3C21)c1cccc(Cl)c1 (stereo not drawn) [Example A18, exo-N-[2-(3-chlorophenyl)propan-2-yl]-6-fluoro-1,1a,2,7b-tetrahydrocyclopropa[c][1]benzopyran-1-carboxamide] | 2500 nM | 500 to 5000 nM |

Now from value to compound:

| EC50 (electrophysiology EC50 values) | EC50 (potency class) | Structure (SMILES) |
| --- | --- | --- |
| 1100 nM | 500 to 5000 nM | O=C(N[C@@H](CO)C1CCCCC1)C1C2COc3ccccc3C21 (stereo partly drawn) [Example A6, exo-N-[(1R)-1-cyclohexyl-2-hydroxyethyl]-1,1a,2,7b-tetrahydrocyclopropa[c][1]benzopyran-1-carboxamide] |
| 800 nM | 500 to 5000 nM | O=C(N[C@@H](C(F)F)C1CCCCC1)C1C2COc3ccc(F)cc3C21 (stereo partly drawn) [Example A7, exo-N-[(1R)-1-cyclohexyl-2,2-difluoroethyl]-6-fluoro-1,1a2,7b-tetrahydrocyclopropa[c][1]benzopyran-1-carboxamide] |
| 1000 nM | 500 to 5000 nM | O=C(NC1(c2ccccc2)CCC1)C1C2COc3ccc(F)cc3C21 (stereo not drawn) [Example A8, exo-6-fluoro-N-(1-phenylcyclobutyl)-1,1a,2,7b-tetrahydrocyclopropa[c][1]benzopyran-1-carboxamide] |
| 1100 nM | 500 to 5000 nM | O=C(NC1(c2ccc(F)cc2)CC1)C1C2COc3ccc(F)cc3C21 (stereo not drawn) [Example A9, exo-6-fluoro-N-[1-(4-fluorophenyl)cyclopropyl]-1,1a,2,7b-tetrahydrocyclopropa[c][1]benzopyran-1-carboxamide] |
| – | 500 to 5000 nM | COc1cc(C2(NC(=O)C3C4COc5ccccc5C43)CC2)ccn1 (stereo not drawn) [Example A10, exo-N-[1-(2-methoxypyridin-4-yl)cyclopropyl]-1,1a,2,7b-tetrahydrocyclopropa[c][1]benzopyran-1-carboxamide] |
| 620 nM | 500 to 5000 nM | CCOc1ccc(C2(NC(=O)C3C4COc5ccccc5C43)CCC2)cn1 (stereo not drawn) [Example A11, exo-N-[1-(6-ethoxypyridin-3-yl)cyclobutyl]-1,1a,2,7b-tetrahydrocyclopropa[c][1]benzopyran-1-carboxamide] |
| 1500 nM | 500 to 5000 nM | COc1cc(C2(NC(=O)C3C4COc5ccccc5C43)CCC2)ccn1 (stereo not drawn) [Example A12, exo-N-[1-(2-methoxypyridin-4-yl)cyclobutyl]-1,1a,2,7b-tetrahydrocyclopropa[c][1]benzopyran-1-carboxamide] |
